Assay results: patent publication US8404746B2, “Anti-diabetes composition containing chicoric acid and/or one of the metabolites thereof” (Centre National de la Recherche Scientifique (CNRS), priority 2006, dated 2013)

Test system: L6 rat myocyte cell line
Experiment: [3H]-deoxyglucose uptake in the L6 rat myocyte cell line with or without insulin (Example 5, FIG. 5)
Type: cell-based
Conditions: insulin at 100 nM alone, p<0.001
Description: The L6 line (a line from the skeletal muscle of Rattus norvegicus provided by ATCC-LCC Promochem) was used. Glucose uptake in the presence of insulin with or without SAT2 was quantified using [^3H]-deoxyglucose. The L6 cell line is cultivated in DMEM (4.5 g/l glucose) supplemented with 10% fetal calf serum (FCS). For the glucose uptake experiments, the cells are inoculated in 12-well plates at a density of 10^4 cells/well. After three days of culture, the cells are differentiated in DMEM with 2% FCS for one week. The day of the experiment, the cells are deprived for 4 hours in DMEM without FCS and containing 0.1% BSA, and then they are incubated for 1 hour in a Krebs-Ringer buffer containing 1 g/l glucose and containing […] insulin with or without SAT2 at a concentration of 50 μg/ml or 100 μg/ml. The cells are then washed in Krebs-Ringer and then incubated in the presence of 0.5 μCi [^3H]-deoxyglucose in 1 ml Krebs-Ringer per well. Glucose uptake by the L6 cells is stopped by three washings in cold PBS and the cells are then lysed in 1 ml of a 0.1 N NaOH solution. Concentration in total protein is estimated by the Bradford method and radioactivity is measured using a β counter. The final results are expressed in cpm/mg/min. […] The effects on glucose uptake are measured in the presence of [^3H]-deoxyglucose for 5 minutes. […]

Insulin
increase in glucose capture: 30.4%
